Earlier results on one compound are cited in patent US20060073200A1, “Lercanidipine capsules” (Recordati Ireland Limited, priority 2004, published 2006).

Read-outs that look alike come from different tables or passages of the source.

Assay in data set [1]: not given
The source holds these as a separate data set.

Data set [2] deals with cytochrome P450 IIIA4 isoenzyme (Homo sapiens, UniProt P08684). The conditions noted are these: extensive presystemic first pass elimination.
cytochrome P450 IIIA4 isoenzyme, sequence (P08684 whole entry): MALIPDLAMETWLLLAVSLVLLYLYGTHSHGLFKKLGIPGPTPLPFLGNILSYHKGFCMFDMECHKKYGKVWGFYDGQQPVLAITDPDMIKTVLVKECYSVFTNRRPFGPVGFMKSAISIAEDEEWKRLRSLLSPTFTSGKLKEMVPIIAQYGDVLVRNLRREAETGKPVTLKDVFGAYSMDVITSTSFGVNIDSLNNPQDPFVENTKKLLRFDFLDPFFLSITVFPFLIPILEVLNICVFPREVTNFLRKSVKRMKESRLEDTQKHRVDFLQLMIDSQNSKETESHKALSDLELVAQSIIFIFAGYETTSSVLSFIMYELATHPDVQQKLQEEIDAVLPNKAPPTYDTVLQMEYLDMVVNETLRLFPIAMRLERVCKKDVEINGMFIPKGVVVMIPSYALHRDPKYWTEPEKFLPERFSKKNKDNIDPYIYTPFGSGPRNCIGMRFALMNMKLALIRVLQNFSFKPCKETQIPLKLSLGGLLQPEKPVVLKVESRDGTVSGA

Regarding `COC(=O)C1=C(C)NC(C)=C(C(=O)OC(C)(C)CN(C)CCC(c2ccccc2)c2ccccc2)C1c1cccc([N+](=O)[O-])c1` (centres unmarked) [Lercanidipine, methyl 1,1,N-trimethyl-N-(3,3-diphenylpropyl)-2-aminoethyl 1,4-dihydro-2,6-dimethyl-4-(3-nitrophenyl)pyridine-3,5-dicarboxylate], the “increase in amount of lercanidipine absorbed with simultaneous intake of food” value (food (especially high fat content) compared to administration without food) was “three to four fold”. The “plasma level of lercanidipine” value (immediate release dosage forms, by 24 h) was “below 1 ng/ml”. Besides, under “oral administration of an immediate release form”, the “peak plasma level (Tmax)” value is 1 to 3 h. Besides, in the data set on Caco-2 cell apparatus, the Paap is 0.05 ×10⁻⁶ cm/s. Moreover, the solubility result is reported as “less than 20 μg/ml” in data set [1] (acidic media, at pH 5) and “less than 5 μg/ml” in data set [1] (pH greater than 5). For the same compound, in data set [1] (water, lercanidipine and its salts), the aqueous solubility result was “about 5 μg/ml”. The “substrate for cytochrome P450 IIIA4 isoenzyme” value in data set [2] is reported as “substrate”.
